Laboratory results as given in US20260076983A1, “CANNABINOIDS COMPOSITIONS WITH POLYUNSATURATED FATTY ACID MONOGLYCERIDES AS A SPECIFIC COX-2 INHIBITOR, METHODS AND USES THEREOF” (SCF PHARMA INC., priority 2022, published 2026).

Target: T1, COX-2 enzyme (Homo sapiens, UniProt P35354)
T1 construct: PGE2 levels in lipopolysaccharide (LPS)-challenged human whole blood; from tissue; host or cells: human whole blood (heparin tube) from one volunteer, LPS-challenged ex vivo
T1 sequence (P35354 18-604): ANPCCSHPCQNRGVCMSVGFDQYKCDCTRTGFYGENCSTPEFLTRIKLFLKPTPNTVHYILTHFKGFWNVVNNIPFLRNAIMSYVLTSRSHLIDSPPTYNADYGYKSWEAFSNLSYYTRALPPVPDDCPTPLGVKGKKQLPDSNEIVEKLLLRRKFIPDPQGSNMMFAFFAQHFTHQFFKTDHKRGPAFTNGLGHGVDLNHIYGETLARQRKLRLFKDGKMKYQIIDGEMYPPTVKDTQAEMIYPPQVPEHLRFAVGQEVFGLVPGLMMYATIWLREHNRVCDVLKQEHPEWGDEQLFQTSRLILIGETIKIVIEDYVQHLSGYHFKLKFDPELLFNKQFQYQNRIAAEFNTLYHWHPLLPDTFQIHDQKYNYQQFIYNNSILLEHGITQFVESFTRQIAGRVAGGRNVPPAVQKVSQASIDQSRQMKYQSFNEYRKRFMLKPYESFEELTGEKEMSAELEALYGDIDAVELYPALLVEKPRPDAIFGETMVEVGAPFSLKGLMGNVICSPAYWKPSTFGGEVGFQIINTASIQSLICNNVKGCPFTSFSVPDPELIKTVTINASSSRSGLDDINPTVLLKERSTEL
Test: PGE2 levels in LPS-challenged human whole blood after oral capsules (human case study)
Format: in vivo
Conditions: cross-over, blood 3.5 h after dosing
Procedure: 200 mg of cannabidiol (CBD) dissolved in 2.0 g of MCT oil, 2.0 g of compound of formula (IV) alone and 200 mg of cannabidiol (CBD) dissolved in 2.0 g of compound of formula (IV) were separately encapsulated in four (4) hard gel capsules (size 00) for a cross over COX-2 case study. A pilot cross-over case study was conducted in one volunteer over a three (3) week periods with one experiment per week. In the morning of the experiment, 10 ml of blood was collected in heparin tube from the volunteer fasted for 10 h. The four (4) hard gel capsules were swallowed with a glass of water and blood collection was repeated after 3.5 h. PGE2 levels in lipopolysaccharide (LPS)-challenged human whole blood was measured as biochemical index for cyclooxygenase COX-2 activity (Brideau C, Kargman S, Liu S, Dallob A L, Ehrich E W, Rodger I W, Chan C C. A human whole blood assay for clinical evaluation of biochemical efficacy of cyclooxygenase inhibitors. Inflamm Res. 1996 February; 45(2):68-74. doi: 10.1007/BF02265118. PMID: 8907587).
100 mg of cannabidiol (CBD) dissolved in 2.0 g of compound of formula (IV) was encapsulated in four (4) hard gel capsules (size 00) for COX-1 and COX-2 case study. A pilot case study was conducted in one volunteer. In the morning of the case study, 20 ml of blood was collected (1×10 ml serum tube and 1×10 ml heparin tube) from the volunteer fasted for 10 h. […]

- inhibition of the COX-2 enzyme (Example 1, one volunteer, oral hard gel capsules, 200 mg CBD in 2.0 g MCT oil, 2.0 g compound of formula (IV) alone, 200 mg CBD in 2.0 g compound of formula (IV)): 10%
- inhibition of the COX-2 enzyme (in words) (Example 3, one volunteer, 2.0 g compound of formula (IV), oral capsules): mild inhibition
Compound: CC/C=C\C/C=C\C/C=C\C/C=C\C/C=C\CCCC(=O)OCC(O)CO (centres unmarked) [compound of formula (IV)]
